{"source": "patent US20230240290A1", "about": "“USE OF (Z)-3-HEXENYL ESTERS AND METHOD FOR PROTECTING PLANTS AGAINST PESTS” (UNIVERSITAT POLITÈCNICA DE VALÈNCIA, priority 2020, published 2023)", "key": {"Nesidiocoris tenuis": {"test_system": "Nesidiocoris tenuis", "settings": "in vivo", "experimental": "To know the behavior of the dispensers loaded with (Z)-3-hexenyl propionate under real cultivation conditions, four commercial greenhouses for tomato cv Raf located in Xilxes (Castellón province), with a history of problems with T. absoluta contamination at the end of winter, were selected. An experimental design of randomized blocks was carried out where each greenhouse was considered a block with two treatments per block and 4 repetitions per treatment. […]\nTwenty plants randomly chosen by repetition were sampled weekly for 11 weeks, beginning 30 Jan. […] First, the number of leaflets infested by T. absoluta per plant was counted. Then the number of N. tenuis (adults and nymphs) throughout the apical third of each plant (leaves, flowers and shoots) was counted. Following the methodology described above, 6 samples were taken from the apical part of each plant per repetition, and these samples were immediately introduced into liquid nitrogen to quantify the expression of the PR1 and PIN2 genes (described in Example 1 and Example 2). The expression of these genes was quantified one day before, 4, and 8 weeks after hanging the dispensers in the greenhouses."}, "[1]": {"test_system": "PR1 (marker gene for the salicylic acid signaling pathway)", "experiment": "Transcriptional response of defense gene PR1 in tomato plants exposed to volatiles (laboratory)", "type": "in vivo, Solanum lycopersicum cv. Moneymaker", "settings": "intact tomato plants exposed 24 h; filter paper, 1:10,000 ester:methanol; n=8", "experimental": "Moneymaker tomato plants were used. Two weeks after seed germination, the seedlings were individually transplanted into pots (8×8×8 cm). The plants were kept at 25±2° C., with a constant relative humidity of 65%±5% and a 14:10 h (light:dark) photoperiod. Tomato plants that had not received any pesticide treatment at four weeks of age (about 20 cm tall) were used. All volatiles used were obtained from Sigma-Aldrich (St. Louis, Mo., USA). Each volatile was exposed by using a 2×2 cm piece of filter paper on which 10 μl of a solution containing the corresponding volatile at a concentration of 1:10,000 [(Z)-3-hexenyl ester:methanol] was impregnated as an emitting source of the corresponding volatile (Pérez-Hedo, M. et al. Biocontrol, 63: 203-213 (2018)).\nTo activate a plant, two pieces of filter paper impregnated with the volatile were placed at the bottom of a 30×30×30 cm plastic cage (BugDorm-1 Insect Tents; MegaView Science Co., Ltd, Taichung, Taiwan) into which the plant was introduced. A control treatment was carried out in which the two pieces of filter paper were impregnated with 10 μl of methanol. Eight repetitions per treatment were performed. The plants of the treatments were kept exposed to the volatile without disturbing for 24 hours in separate and isolated climatic chambers to avoid any interference from the volatiles and were kept at 25±2° C., 65±10% RH, and a 14:10 h (L:D) photoperiod. […]\nThe methodology followed for extracting and quantifying gene expression was described by Pérez-Hedo et al. Journal of Pest Science 3: 543-554 (2015). The primers used were forward primer: 5′-[…]-3′ (SEQ ID NO: 1) and reverse primer: 5′-[…]-3′ (SEQ ID NO: 2) for the quantification of PR1, forward primer: 5′-[…]-3′ (SEQ ID NO: 3) and reverse primer: 5′-[…]-3′ (SEQ ID NO: 4) for SI-PI-I, and forward primer: 5′-[…]-3′ (SEQ ID NO: 5) and reverse primer: 5′-[…]-3′ (SEQ ID NO: 6) for the SI-PI-II gene. […]"}}}
{"compound": "CC/C=C\\CCOC(=O)CC", "note": "[(Z)-3-hexenyl propanoate]", "values": [{"measurement": "Population of the plant bug N. tenuis, treatment vs control", "setting": "Nesidiocoris tenuis", "result": "remained the same"}, {"measurement": "Transcriptional response of PR1 compared to the control", "setting": "[1]", "result": "significantly overexpressed"}]}
